Experimental data reported in patent US8961986B2, “Peptide composition” (Apitope Technology (Bristol) Limited, priority 2000, dated 2015).
Entries after “also recorded” stand apart in the source; their conditions may differ.

Legend:
[1] = system: splenocytes from double transgenic mice; assay: Induction of tolerance with Apitope MS7 in double-transgenic mice, splenocyte cytokine ELISA; assay type: in vivo; conditions: 48 hr cultures; subcutaneous/intradermal treatment vs PBS
Protocol: (§1) Groups of 6 or 7 age (8-12 weeks) and sex matched double transgenic mice were used. In the first experiment one group was treated ten times intranasally with 100 μg Apitope MS7 in […] at regular intervals over a period of three weeks. The control group received PBS alone. In the second experiment the same amount of peptide was given by subcutaneous/intradermal administration in […] PBS. The control group received the same volume of PBS.
In the second experiment, where tolerance induction was induced via the subcutaneous/intradermal route, cell culture supernatants from the splenocytes were collected at 48 and 72 hrs of culture, and assayed for the presence of IFN-γ and interleukin-2 (IL-2) using an enzyme linked immunosorbant assay (ELISA).

HLA-DR2 = HLA-DR2 binding of cocktail peptides; design: species or system human
[2] = system: fixed Mgar (HLA-DR2+ve) APC presenting to T cells from DR2:MBP 82-100 transgenic mouse; assay: Antigen-presentation assay using an APIPS (fixed APC) with T cells from DR2:MBP82-100 transgenic mouse; assay type: cell-based; conditions: live or p-formaldehyde-fixed Mgar cells, 72 h
Protocol: Presentation of peptides to T cells isolated from DR2:MBP82-100 transgenic mouse was essentially as described above except APC were plated at 5×10^5 cells per well, T cells were plated at 1×10^5 cells per well, and incubation was allowed to proceed for 72 h prior to the addition of [^3H]-thymidine.
For any given epitope, there may exist one or more apitopes, capable of being presented to APC without further processing. The presence of apitopes within two regions of MBP is investigated by incubating live or p-formaldehyde-fixed Mgar (HLA-DR2+ve) cells are incubated with overlapping peptides in serum from MBP regions 77-100 (FIG. 12) and 125-148 (FIG. 13) or in serum alone. T cells were added and after 72 h (FIG. 12) or after 48 h (FIG. 13) the T cell proliferative response was measured by ^3H-thymidine uptake. For MBP 77-100, the T cells are isolated from a DR2:MBP 82-100 transgenic mouse, whereas for MBP 130-144 the T cell clone MS17:A3 is used.

[3] = system: splenocytes from double transgenic mice; assay: Induction of tolerance with Apitope MS7 in HLA:DR2 / TCR MBP 82-100 double-transgenic mice, splenocyte proliferation; assay type: in vivo
Protocol: as §1
Three days after the last administration of peptide or PBS, the spleens were harvested and cell suspensions prepared. The splenocytes were incubation with 0.5 or 5 μg/ml Apitope MS7, and assessed for proliferation by [^3H]-Thymidine incorporation after 48, 72 and 96 hours of culture. Results are expressed as stimulation indices (SI=counts per minute (cpm) of culture containing antigen/counts per minute without antigen).

[4] = system: MBP-specific T cell clones; assay: T cell clone (TCC) proliferation assay, fine mapping of MBP epitopes; assay type: cell-based, human; conditions: TCC from MS patients and healthy individuals, proliferative response
Protocol: MBP-specific T cell lines (TCL) are generated from 8 MS patients and 2 healthy control donors. PBMC from each subject are separated as described above and plated out at 1×10^6 cells/ml in 6-well plates in the presence of MBP (50 μg/ml); a portion of PBMC from each subject is regularly frozen and stored for subsequent restimulations. Seven days later the cells are fed with fresh medium containing 2% IL-2 (Lymphocult-HT; Biotest LTD., Birmingham, UK), and on day 12 of culture all cells are restimulated with antigen, IL-2 and irradiated (2500 Rad) autologous PBMC as a source of antigen presenting cells (APC), at a cell ratio of 1T cell:5 APC. Cells are expanded in IL-2 every 3-4 days, and on day 14 are restimulated with antigen, IL-2 and PBMC, as described above. On the day of the first restimulation cells are examined for specific proliferation to MBP. Briefly, 2×10^4 T cells and 1×10^5 irradiated autologous PBMC are cultured in triplicate, in 96-well round-bottom plates, in the presence of MBP. Cells are cultured for 2 days and pulsed with (^3H)-Thymidine at 0.4 μCi/well during the last 18 hours of the culture. Cells are then harvested as described above, and a TCL is considered to be MBP-specific with a δcpm>1000 and a SI>3.
Following 3 restimulation/expansion cycles TCL are cloned using PHA (Sigma, Poole, Dorset, UK)) in the presence of autologous irradiated PBMC as APC. T cells are plated under limiting dilution conditions at 0.1 cell/well, 0.3 cell/well and 1 cell/well and cultured in Terasaki plates (Nunc International, Costar) with 1×10^4 irradiated PBMC, 5 μg/ml PHA, and 2% IL-2. After 10-12 days, growth-positive wells are expanded onto 96-well round-bottom plates, using 1×10^5 irradiated PBMC, 5 μg/ml PHA and IL-2. Three days later wells are fed with fresh medium containing IL-2, and on day 7 the clones are expanded onto 48-well plates using 5×10^5 irradiated PBMC, PHA and IL-2; at this point clones are tested in proliferation assays for specific responses to MBP. MBP-specific clones are expanded a week later onto 24-well plates, using 1×10^6 irradiated PBMC with PHA or Dynabeads (Dynal, UK) and IL-2. The clones are maintained in 24-well plates using a 7-10 day restimulation/expansion cycle, essentially as described above. The ability of T cell clones (TCC) to recognize the panel of MBP peptides is tested by proliferation assays, as described above.
TCC are generated from 8 MS patients and 2 healthy individuals, and used to clarify the fine specificity of the peptide regions identified in the kinetic response assay. The specificity of each TCC is tested by its proliferative response to the panel of 15-mer peptides. Clone SD:A7 recognised region 1-24, and within this region this TCC responded to a.a. 5-19. Region 30-54 is recognised by 4 clones (MS49:D3, MS49:C8, MS49:A8, MS49:B6) and the epitope within this region is 30-44. […] Five clones (MS43:A7, MS41:B6, MS41:A2, MS41:C6, N5:8) recognize a.a. 83-99 which is contained in region 75-99. One patient produced TCC specific for a.a. 110-124 (MS60:A2, MS60:B3), contained within the 105-129 pool, and another TCC from the same patient is specific to 130-144 (MS60:E1), found within the 120-144 region. Five individuals produce clones which recognize epitopes within the region 135-159: MS60:F7, MS60:D1, MS59:F1 and N5:19 recognizes a.a. 140-154; MS57:A1 is specific to 140-149, and TCC MS17:A3 responds to sequence 130-144. […] Lastly, region 150-170 is recognized by 2 clones specific to a.a. 156-169.

[5] = system: lymphocytes from HLA:DR2 (DRB1*1501) transgenic mice; assay: Induction of tolerance with Apitope MS6 in HLA:DR2 transgenic mouse, lymph node cell proliferation; assay type: in vivo
Protocol: HLA:DR2 transgenic mice aged 8-12 weeks were used in the study. The mice were tolerized by pre-treatment with 100 μg of Apitope MS6 in […] phosphate buffered saline (PBS) or […] alone, by intranasal administration on days −8, −6 and −4 prior to immunisation on day 0.
Following tolerization, mice were immunised subcutaneously with […] an emulsion containing an equal volume of Complete Freund's Adjuvant (CFA) and PBS containing 200 μg of Apitope MS6 and 400 μg heat-killed Mycobacterium tuberculosis. A control group of mice, previously tolerized with PBS intranasally, were immunised without peptide.
At 10 days post subcutaneous immunisation, draining popliteal and inguinal lymph nodes were removed and T-cell activation was assessed by assaying the proliferation of T-cells in response to various concentrations of Apitope MS6. Proliferation was measured by [^3H]-Thymidine incorporation, and expressed as the stimulation index (SI=corrected counts per minute (ccpm) culture containing peptide/ccpm culture without peptide).

[6] = system: MHC class I or II molecule; conditions: cited from earlier work
[7] = system: 81-111-responsive T-cell line and sub-lines; assay: Reactivity of T cell lines and clones from peptide-primed mice to MBP 81-111 region peptides; assay type: cell-based
Protocol: In order to investigate T cell reactivity to the 81-111 region of MBP, lymph node cells from mice primed with 81-111 are stimulated with 81-111 in vitro and these cells are tested with a panel of overlapping 10-mer peptides with two residue shifts covering the 81-111 region (namely: 81-90, 83-92, 85-94, 87-96, 89-98, 91-100, 93-102, 95-104, 97-106, 99-108 and 101-111). The response pattern to peptides covering the 89-101 show stimulatory capacity for 5 adjacent peptides (N terminal 87-96 through to 95-104) reflecting the presence of at least two (and perhaps three) distinct epitopes.
In order to investigate this region further, three sub-lines are generated from the original 81-111-responsive T-cell line and these are retested with a panel of overlapping 10-mer peptides with one residue shift covering the 84-106 region. The results reveal the existence of three distinct but overlapping T cell epitopes within the 89-101 sequence: 89-94, 92-98 and 95-101 (see FIG. 14).

[8] = system: experimental autoimmune encephalomyelitis (EAE); conditions: cited from earlier work
[9] = system: draining lymph node cells; assay: Tolerance experiments with 89-101 and 87-96: lymph node cell recall proliferation; assay type: in vivo, Mice
Protocol: In order to test this possibility tolerance experiments are performed with the 89-101 and 87-96 peptides (FIGS. 15a and b).
Mice received 200 μg of peptide in PBS or PBS alone intraperitoneally on days −8, −6 and −4 prior to 100 μg of peptide in complete Freunds adjuvant on day 0. After 10 days, draining lymph node cells (6×10^5 per well) were cultured in X-Vivo 15 medium supplemented with 5×10^−5M 2-mercaptoethanol and […] L-glutamine with or without antigen for 72 hours. Cultures were pulsed for the final 16 hours with 0.5 μCi ^3H.thymidine and incorporation measured using a liquid scintillation counter. Results are expressed as means counts per minute for triplicate cultures.

I-A^S = target: T1, I-A^S (Mus musculus, UniProt P06345+P14437); conditions: cited from earlier work
T1 sequence (P14437 1-233): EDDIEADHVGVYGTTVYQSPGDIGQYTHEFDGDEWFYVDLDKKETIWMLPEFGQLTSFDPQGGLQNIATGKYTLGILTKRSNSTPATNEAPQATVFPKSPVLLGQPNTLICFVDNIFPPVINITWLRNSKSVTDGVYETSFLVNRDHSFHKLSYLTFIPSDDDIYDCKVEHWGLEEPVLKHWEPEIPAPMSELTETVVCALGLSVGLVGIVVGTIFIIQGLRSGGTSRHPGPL
T1 sequence (P06345 28-263): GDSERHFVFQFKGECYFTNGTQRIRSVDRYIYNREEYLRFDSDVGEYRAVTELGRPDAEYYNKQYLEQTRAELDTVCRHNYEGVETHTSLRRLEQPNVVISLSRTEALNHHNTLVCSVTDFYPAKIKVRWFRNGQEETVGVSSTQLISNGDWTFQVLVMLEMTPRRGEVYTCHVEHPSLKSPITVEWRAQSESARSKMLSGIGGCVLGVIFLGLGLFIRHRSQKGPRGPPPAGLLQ

Q: Which results are given for “H-Glu-Asn-Pro-Val-Val-His-Phe-Phe-Lys-Asn-Ile-Val-Thr-Pro-Arg-Thr-Pro-NH2 (H-ENPVVHFFKNIVTPRTP-NH2) [MBP 83-99]”?
A: IFNγ secretion in splenocyte culture supernatants [1]: impressive reduction in secretion; IL-2 secretion in splenocyte culture supernatants [1]: impressive reduction in secretion; HLA-DR2 binding (HLA-DR2): HLA-DR2 binding; apitope within MBP region 77-100 [2]: shown to act as apitopes; mean SI of splenocyte proliferation, intranasal treatment ([3]; 72 hrs, cultures with 5 μg/ml 83-99, PBS control mean SI 89): 17; mean SI of splenocyte proliferation, subcutaneous treatment ([3]; PBS treated animals mean SI 124): 49; splenocyte proliferation after treatment, both routes ([3]; intranasal and subcutaneous/intradermal): striking reduction in proliferation; T cell clones (TCC) recognising the peptide [4]: Five

Q: With “H-Gly-Phe-Lys-Gly-Val-Asp-Ala-Gln-Gly-Thr-Leu-Ser-Lys-Ile-Phe-NH2 (H-GFKGVDAQGTLSKIF-NH2) [MBP 140-154]” as the substance, how does the “SI median of lymphocyte proliferation after intranasal pre-treatment” value ([5]; Group B, 100 μg intranasal days -8, -6, -4, recall peptide 150 μg/ml (PBS group SI median 2.5 to 10)) read?
A: 3

Q: What about the “tolerance induction in lymphocytes from HLA-DR2 mice” value ([5]; intranasal pre-treatment) of the same substance?
A: has induced tolerance

Q: What about the HLA-DR2 binding (HLA-DR2) of the same substance?
A: HLA-DR2 binding

Q: And the “identified as apitope in WO 03/064464” value [6]?
A: apitopes

Q: What about the “T cell clones (TCC) recognising the peptide” value [4] of the same substance?
A: responded

Q: And the “T cell clones (TCC) recognising the peptide” value ([4]; listed as 140-154)?
A: recognizes

Q: Which “response of the three epitope-specific T cell lines (TCL) to the peptide” value ([7]; TCL specific for 89-94, 92-98, 95-101) does the source give for “MBP 89-101: myelin basic protein (MBP) peptide 89-101, immunodominant antigen, not tolerogenic (PHLIRLFSRDAPG; UniProt P02686 89-101, looked up, fragment)” here?
A: All three TCL respond

Q: What about the “inducing tolerance when administered in solution” value ([8]; Anderton and Wraith (1998)) of the same substance?
A: ineffective at inducing tolerance

Q: What about the “prevention of / protection against EAE by peptide in soluble form” value ([8]; EAE induced with whole myelin or the 89-101 peptide) of the same substance?
A: does not prevent; also recorded: fails to protect against EAE

Q: And the “immunogenicity: priming for T cell reactivity and induction of EAE” value ([8]; after immunisation)?
A: very effective immunogen

Q: And the “effect of peptide as tolerogen on recall responses after priming with 87-96” value ([9]; 200 μg i.p. days -8, -6, -4, priming 87-96 in CFA day 0, lymph node cells day 10)?
A: failed to inhibit recall responses to either 87-96 or 89-101

Q: And the “in vitro recall response after priming with 87-96” value ([9]; PBS pre-treated mice, lymph node cells)?
A: weaker response

Q: What about the “binding affinity for I-A^S” value (I-A^S) of the same substance?
A: relatively high affinity

Q: For “MBP 92-98: cryptic T cell epitope within MBP 89-101 (IRLFSRD; UniProt P02686 92-98, looked up, fragment)”, which “T cell clones from mice primed with the 89-101 peptide responding” value ([7]; six clones generated) is on record?
A: all six clones
